Experimental data taken from patent US20240050428A1 (Cullgen (Shanghai), Inc., priority 2020, published 2024).
Like-named read-outs stand apart in the source and are kept apart here.

Key:
MV4;11 cells = assay: Cell viability assay (CellTiter-Glo) in MV4;11 cells, alone or with gilteritinib; type: cell-based; conditions: Homo sapiens, MV4;11 cells, three days, CellTiter-Glo, read-out: MV4
MOLM-13 cells = assay: Cell viability assay (CellTiter-Glo) in MOLM-13 cells, alone or with gilteritinib; type: cell-based; conditions: Homo sapiens, MOLM-13 cells, three days, CellTiter-Glo
[1] = MV4-11, 72 h, compound alone (without gilteritinib), 11 IC50
[2] = MV4-11, 72 h, with gilteritinib 10 nM, 11 IC50 gilteritinib
[3] = MOLM-13, 72 h, compound alone (without gilteritinib), read-out: MOLM-13 IC50
[4] = MOLM-13, 72 h, with gilteritinib 20 nM, read-out: MOLM-13 IC50 gilteritinib
[5] = 72 h, compound alone (without gilteritinib), 11 IC50
[6] = 72 h, with gilteritinib 10 nM, 11 IC50 gilteritinib
[7] = 72 h, compound alone (without gilteritinib), read-out: MOLM-13 IC50
[8] = 72 h, with gilteritinib 20 nM, read-out: MOLM-13 IC50 gilteritinib

IC50 (MV4;11 cells; [1]) | IC50 (MV4;11 cells; [2]) | IC50 (MOLM-13 cells; [3]) | IC50 (MOLM-13 cells; [4]) | SMILES | IC50 (MV4;11 cells; [5]) | IC50 (MV4;11 cells; [6]) | IC50 (MOLM-13 cells; [7]) | IC50 (MOLM-13 cells; [8])
> 1000 nM | > 1000 nM | > 1000 nM | > 1000 nM | O=C(CN1CC(N2CCN(c3ccccn3)CC2)C1)NCc1ccc2c(c1)C(=O)N(C1CCC(=O)NC1=O)C2=O (centres unmarked) [GS-345, N-((2-(2,6-Dioxopiperidin-3-yl)-1,3-dioxoisoindolin-5-yl)methyl)-2-(3-(4-(pyridin-2-yl)piperazin-1-yl)azetidin-1-yl)acetamide] | – | – | – | –
> 1000 nM | > 1000 nM | > 1000 nM | > 1000 nM | O=C(CN1CCCC(n2cc(-c3cnc4ccccc4n3)cn2)C1)NCc1ccc2c(c1)C(=O)N(C1CCC(=O)NC1=O)C2=O (centres unmarked) [GS-346, N-((2-(2,6-Dioxopiperidin-3-yl)-1,3-dioxoisoindolin-5-yl)methyl)-2-(3-(4-(quinoxalin-2-yl)-1H-pyrazol-1-yl)piperidin-1-yl)acetamide] | – | – | – | –
> 1000 nM | > 1000 nM | > 1000 nM | 10 to 100 nM | O=C1CCC(N2C(=O)c3ccc(NCCCN4CCCC(n5cc(-c6cnc7ccccc7n6)cn5)C4)cc3C2=O)C(=O)N1 (centres unmarked) [GS-347, 2-(2,6-Dioxopiperidin-3-yl)-5-((3-(3-(4-(quinoxalin-2-yl)-1H-pyrazol-1-yl)piperidin-1-yl)propyl)amino)isoindoline-1,3-dione] | – | – | – | –
10 to 100 nM | < 10 nM | 10 to 100 nM | < 10 nM | O=C1CCC(N2C(=O)c3ccc(NCCCCCC(=O)N4CCC(F)(c5ccccc5)CC4)cc3C2=O)C(=O)N1 (centres unmarked) [GS-348, 2-(2,6-Dioxopiperidin-3-yl)-5-((6-(4-fluoro-4-phenylpiperidin-1-yl)-6-oxohexyl)amino)isoindoline-1,3-dione] | – | – | – | –
10 to 100 nM | 10 to 100 nM | 100 to 1000 nM | 10 to 100 nM | O=C1CCC(N2C(=O)c3ccc(CNC(=O)NC4CCCC(n5cc(-c6cnc7ccccc7n6)cn5)C4)cc3C2=O)C(=O)N1 (centres unmarked) [GS-349, 1-((2-(2,6-Dioxopiperidin-3-yl)-1,3-dioxoisoindolin-5-yl)methyl)-3-(3-(4-(quinoxalin-2-yl)-1H-pyrazol-1-yl)cyclohexyl)urea] | – | – | – | –
> 1000 nM | > 1000 nM | > 1000 nM | < 10 nM | O=C1CCC(N2C(=O)c3ccc(NCCCN4CCCC(N5CCN(c6ccccn6)CC5)C4)cc3C2=O)C(=O)N1 (centres unmarked) [GS-350, 2-(2,6-Dioxopiperidin-3-yl)-5-((3-(3-(4-(pyridin-2-yl)piperazin-1-yl)piperidin-1-yl)propyl)amino)isoindoline-1,3-dione] | – | – | – | –
– | – | – | – | O=C1CCC(N2C(=O)c3ccc(NCCNc4cccc(N5CCC(n6cc(-c7cnc8ccccc8n7)cn6)CC5)c4)cc3C2=O)C(=O)N1 (centres unmarked) [GS-351, 2-(2,6-Dioxopiperidin-3-yl)-5-((2-((3-(4-(4-(quinoxalin-2-yl)-1H-pyrazol-1-yl)piperidin-1-yl)phenyl)amino)ethyl)amino)isoindoline-1,3-dione] | 10 to 100 nM | 10 to 100 nM | 10 to 100 nM | < 10 nM
100 to 1000 nM | 100 to 1000 nM | > 1000 nM | 100 to 1000 nM | O=C1CCC(N2C(=O)c3ccc(CCCCCCCn4cc(-c5cnc6ccccc6n5)cn4)cc3C2=O)C(=O)N1 (centres unmarked) [GS-352, 2-(2,6-Dioxopiperidin-3-yl)-5-(7-(4-(quinoxalin-2-yl)-1H-pyrazol-1-yl)heptyl)isoindoline-1,3-dione] | – | – | – | –
– | – | – | – | O=C1CCC(N2C(=O)c3ccc(NCCNc4cccc(-n5cc(-c6cnc7ccccc7n6)cn5)c4)cc3C2=O)C(=O)N1 (centres unmarked) [GS-353, 2-(2,6-Dioxopiperidin-3-yl)-5-((2-((3-(4-(quinoxalin-2-yl)-1H-pyrazol-1-yl)phenyl)amino)ethyl)amino)isoindoline-1,3-dione] | 100 to 1000 nM | 10 to 100 nM | > 1000 nM | 10 to 100 nM
> 1000 nM | > 1000 nM | > 1000 nM | > 1000 nM | O=C1CCC(N2C(=O)c3ccc(OCCCCCCn4cc(-c5cnc6ccccc6n5)cn4)cc3C2=O)C(=O)N1 (centres unmarked) [GS-354, 2-(2,6-Dioxopiperidin-3-yl)-5-((6-(4-(quinoxalin-2-yl)-1H-pyrazol-1-yl)hexyl)oxy)isoindoline-1,3-dione] | – | – | – | –
> 1000 nM | 10 to 100 nM | > 1000 nM | 100 to 1000 nM | O=C1CCC(N2C(=O)c3ccc(NCCCn4cc(-c5cnc6ccccc6n5)cn4)cc3C2=O)C(=O)N1 (centres unmarked) [GS-355, 2-(2,6-Dioxopiperidin-3-yl)-5-((3-(4-(quinoxalin-2-yl)-1H-pyrazol-1-yl)propyl)amino)isoindoline-1,3-dione] | – | – | – | –
100 to 1000 nM | 100 to 1000 nM | > 1000 nM | 100 to 1000 nM | O=C1CCC(N2C(=O)c3ccc(NCCCCCn4cc(-c5cnc6ccccc6n5)cn4)cc3C2=O)C(=O)N1 (centres unmarked) [GS-356, 2-(2,6-Dioxopiperidin-3-yl)-5-((5-(4-(quinoxalin-2-yl)-1H-pyrazol-1-yl)pentyl)amino)isoindoline-1,3-dione] | – | – | – | –
– | – | – | – | O=C1CCC(N2C(=O)c3ccc(NCCNc4cccc(-n5cc(-c6cnc7cccc(Br)c7n6)cn5)c4)cc3C2=O)C(=O)N1 (centres unmarked) [GS-357, 5-((2-((3-(4-(8-Bromoquinoxalin-2-yl)-1H-pyrazol-1-yl)phenyl)amino)ethyl)amino)-2-(2,6-dioxopiperidin-3-yl)isoindoline-1,3-dione] | 10 to 100 nM | 10 to 100 nM | 10 to 100 nM | 10 to 100 nM
– | – | – | – | O=C1CCC(N2C(=O)c3ccc(C4CCN(CCCn5cc(-c6cnc7ccccc7n6)cn5)CC4)cc3C2=O)C(=O)N1 (centres unmarked) [GS-358, 2-(2,6-Dioxopiperidin-3-yl)-5-(1-(3-(4-(quinoxalin-2-yl)-1H-pyrazol-1-yl)propyl)piperidin-4-yl)isoindoline-1,3-dione] | > 1000 nM | > 1000 nM | > 1000 nM | > 1000 nM
> 1000 nM | > 1000 nM | > 1000 nM | > 1000 nM | O=C(CN1CCCC(N2CCN(c3ccccn3)CC2)C1)NCc1ccc2c(c1)C(=O)N(C1CCC(=O)NC1=O)C2=O (centres unmarked) [GS-359, N-((2-(2,6-Dioxopiperidin-3-yl)-1,3-dioxoisoindolin-5-yl)methyl)-2-(3-(4-(pyridin-2-yl)piperazin-1-yl)piperidin-1-yl)acetamide] | – | – | – | –
100 to 1000 nM | 100 to 1000 nM | > 1000 nM | 10 to 100 nM | O=C1CCC(N2C(=O)c3ccc(NCCCCn4cc(-c5cnc6ccccc6n5)cn4)cc3C2=O)C(=O)N1 (centres unmarked) [GS-360, 2-(2,6-Dioxopiperidin-3-yl)-5-((4-(4-(quinoxalin-2-yl)-1H-pyrazol-1-yl)butyl)amino)isoindoline-1,3-dione] | – | – | – | –
100 to 1000 nM | 10 to 100 nM | > 1000 nM | 10 to 100 nM | O=C1CCC(N2Cc3cc(NCCCCCCn4cc(-c5cnc6ccccc6n5)cn4)ccc3C2=O)C(=O)N1 (centres unmarked) [GS-361, 3-(1-Oxo-5-((6-(4-(quinoxalin-2-yl)-1H-pyrazol-1-yl)hexyl)amino)isoindolin-2-yl)piperidine-2,6-dione] | – | – | – | –
– | – | – | – | O=C1CCC(N2C(=O)c3ccc(NCCNc4cccc(N5CCC(n6cc(-c7cnc8cccc(Br)c8n7)cn6)CC5)c4)cc3C2=O)C(=O)N1 (centres unmarked) [GS-362, 5-((2-((3-(4-(4-(8-Bromoquinoxalin-2-yl)-1H-pyrazol-1-yl)piperidin-1-yl)phenyl)amino)ethyl)amino)-2-(2,6-dioxopiperidin-3-yl)isoindoline-1,3-dione] | < 10 nM | < 10 nM | < 10 nM | < 10 nM
100 to 1000 nM | 100 to 1000 nM | > 1000 nM | > 1000 nM | O=C1CCC(N2C(=O)c3ccc(N4CCC(CCCn5cc(-c6cnc7ccccc7n6)cn5)CC4)cc3C2=O)C(=O)N1 (centres unmarked) [GS-363, 2-(2,6-Dioxopiperidin-3-yl)-5-(4-(3-(4-(quinoxalin-2-yl)-1H-pyrazol-1-yl)propyl)piperidin-1-yl)isoindoline-1,3-dione] | – | – | – | –
> 1000 nM | > 1000 nM | > 1000 nM | > 1000 nM | O=C1CCC(N2C(=O)c3ccc(C4CN(CCCCn5cc(-c6cnc7ccccc7n6)cn5)C4)cc3C2=O)C(=O)N1 (centres unmarked) [GS-364, 2-(2,6-Dioxopiperidin-3-yl)-5-(1-(4-(4-(quinoxalin-2-yl)-1H-pyrazol-1-yl)butyl)azetidin-3-yl)isoindoline-1,3-dione] | – | – | – | –
> 1000 nM | > 1000 nM | > 1000 nM | 100 to 1000 nM | O=C1CCC(N2C(=O)c3ccc(NCCCc4cccc(-n5cc(-c6cnc7ccccc7n6)cn5)c4)cc3C2=O)C(=O)N1 (centres unmarked) [GS-365, 2-(2,6-Ddioxopiperidin-3-yl)-5-((3-(3-(4-(quinoxalin-2-yl)-1H-pyrazol-1-yl)phenyl)propyl)amino)isoindoline-1,3-dione] | – | – | – | –
– | – | – | – | O=C1CCC(N2C(=O)c3ccc(NCCNc4cccc(N5CCC(c6ccccc6)CC5)c4)cc3C2=O)C(=O)N1 (centres unmarked) [GS-366, 2-(2,6-Dioxopiperidin-3-yl)-5-((2-((3-(4-phenylpiperidin-1-yl)phenyl)amino)ethyl)amino)isoindoline-1,3-dione] | 10 to 100 nM | < 10 nM | 10 to 100 nM | < 10 nM
> 1000 nM | > 1000 nM | > 1000 nM | > 1000 nM | O=C1CCC(N2C(=O)c3ccc(N4CC(CCCCn5cc(-c6cnc7ccccc7n6)cn5)C4)cc3C2=O)C(=O)N1 (centres unmarked) [GS-367, 2-(2,6-Dioxopiperidin-3-yl)-5-(3-(4-(4-(quinoxalin-2-yl)-1H-pyrazol-1-yl)butyl)azetidin-1-yl)isoindoline-1,3-dione] | – | – | – | –
